Results from the supplement of paper PMC12819154, “High-throughput peptide-centric local stability assay extends protein–ligand identification to membrane proteins, tissues and bacteria” (Nature Structural & Molecular Biology, 2025).

Tests used:
Test in all cases: pEC50 of peptide local stability change
UniProt P06612 = conditions: peptide sequence: DLPTSGSAAKK; direction: stabilized; replicate design: treated separately
How it was run: (§1)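 Lysate of E. coli K-12 BW25113 (1.2 mg ml^−1, desalted, with added MgCl2) was divided into four 50 µl replicates and incubated with ATP (10 µM–10 mM, seven doses) or water for 30 min at 25 °C. After a 4 min trypsin digestion at 22 °C, samples were run by DIA LC–MS/MS, and per-replicate treated/control peptide ratios were fitted with a four-parameter log-logistic model. Values were retained only where R^2 was above 0.9 in at least three replicates and the coefficient of variation was at most 0.25. The reported figure is the mean pEC50 over replicates.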

UniProt P27828 = conditions: peptide sequence: AHNPYGDGQACSR; direction: stabilized; replicate design: treated separately
UniProt P27828, sequence (P27828 whole entry): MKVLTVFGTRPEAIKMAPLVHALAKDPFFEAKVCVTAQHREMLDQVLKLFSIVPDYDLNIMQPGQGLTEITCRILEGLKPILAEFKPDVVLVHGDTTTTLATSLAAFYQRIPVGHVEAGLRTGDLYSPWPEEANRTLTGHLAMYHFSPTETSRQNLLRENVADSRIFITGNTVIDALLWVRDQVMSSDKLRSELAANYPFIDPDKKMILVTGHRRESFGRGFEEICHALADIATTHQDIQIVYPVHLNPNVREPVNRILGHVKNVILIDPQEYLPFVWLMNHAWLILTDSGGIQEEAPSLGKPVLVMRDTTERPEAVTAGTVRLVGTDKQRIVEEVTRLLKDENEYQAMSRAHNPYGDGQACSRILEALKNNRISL
How it was run: as §1

UniProt P17888 = conditions: peptide sequence: QQQALAALR; direction: stabilized; replicate design: treated separately
UniProt P17888, sequence (P17888 whole entry): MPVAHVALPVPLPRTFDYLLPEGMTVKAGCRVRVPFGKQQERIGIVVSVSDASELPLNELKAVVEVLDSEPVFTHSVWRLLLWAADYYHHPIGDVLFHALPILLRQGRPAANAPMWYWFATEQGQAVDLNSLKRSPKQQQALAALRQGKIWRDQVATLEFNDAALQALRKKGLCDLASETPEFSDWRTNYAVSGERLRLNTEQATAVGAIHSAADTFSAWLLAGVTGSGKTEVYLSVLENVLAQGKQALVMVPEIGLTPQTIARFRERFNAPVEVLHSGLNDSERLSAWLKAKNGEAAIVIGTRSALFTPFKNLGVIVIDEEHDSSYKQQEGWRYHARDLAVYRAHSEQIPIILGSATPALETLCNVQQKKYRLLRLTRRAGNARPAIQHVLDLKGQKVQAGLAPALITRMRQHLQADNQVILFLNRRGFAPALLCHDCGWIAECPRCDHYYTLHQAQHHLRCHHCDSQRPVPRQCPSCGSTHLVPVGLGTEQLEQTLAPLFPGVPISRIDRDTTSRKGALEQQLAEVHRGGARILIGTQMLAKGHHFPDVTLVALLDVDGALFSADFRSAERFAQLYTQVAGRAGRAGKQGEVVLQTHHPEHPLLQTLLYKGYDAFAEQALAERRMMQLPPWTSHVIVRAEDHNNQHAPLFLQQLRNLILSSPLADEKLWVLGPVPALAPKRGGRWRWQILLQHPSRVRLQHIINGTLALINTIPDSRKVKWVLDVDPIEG
How it was run: as §1

UniProt P37908 = conditions: peptide sequence: QLSHSPHGR; direction: stabilized; replicate design: treated separately
UniProt P37908, sequence (P37908 whole entry): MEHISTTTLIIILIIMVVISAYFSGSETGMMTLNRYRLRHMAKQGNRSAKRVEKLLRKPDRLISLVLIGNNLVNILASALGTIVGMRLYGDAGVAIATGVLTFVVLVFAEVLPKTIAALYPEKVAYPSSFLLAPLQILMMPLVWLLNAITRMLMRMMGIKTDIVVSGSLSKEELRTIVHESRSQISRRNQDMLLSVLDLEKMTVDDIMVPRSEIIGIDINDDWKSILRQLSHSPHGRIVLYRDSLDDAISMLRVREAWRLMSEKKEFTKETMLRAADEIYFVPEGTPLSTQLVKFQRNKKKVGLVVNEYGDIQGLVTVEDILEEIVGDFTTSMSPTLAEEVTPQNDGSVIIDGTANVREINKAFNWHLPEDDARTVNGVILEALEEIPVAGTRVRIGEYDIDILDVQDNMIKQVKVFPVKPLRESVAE
How it was run: as §1

UniProt P00954 = conditions: peptide sequence: FRNDEAFLQQVMK; direction: stabilized; replicate design: treated separately
How it was run: as §1

UniProt P75821 = conditions: peptide sequence: SAKEPPLTHYGVSK; direction: stabilized; replicate design: treated separately
UniProt P75821, sequence (P75821 whole entry): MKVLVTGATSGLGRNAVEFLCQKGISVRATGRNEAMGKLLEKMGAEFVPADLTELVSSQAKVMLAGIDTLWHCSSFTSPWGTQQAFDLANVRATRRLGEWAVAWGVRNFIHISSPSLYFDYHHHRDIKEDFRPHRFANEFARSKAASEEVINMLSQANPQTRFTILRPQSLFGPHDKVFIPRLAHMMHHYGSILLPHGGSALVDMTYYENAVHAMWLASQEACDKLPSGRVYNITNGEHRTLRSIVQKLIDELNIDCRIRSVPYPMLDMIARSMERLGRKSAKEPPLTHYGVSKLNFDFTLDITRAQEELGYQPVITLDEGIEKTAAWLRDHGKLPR
How it was run: as §1

UniProt P23837 = conditions: peptide sequence: VDTLRPGQGVGLAVAR; direction: stabilized; replicate design: treated separately
UniProt P23837, sequence (P23837 whole entry): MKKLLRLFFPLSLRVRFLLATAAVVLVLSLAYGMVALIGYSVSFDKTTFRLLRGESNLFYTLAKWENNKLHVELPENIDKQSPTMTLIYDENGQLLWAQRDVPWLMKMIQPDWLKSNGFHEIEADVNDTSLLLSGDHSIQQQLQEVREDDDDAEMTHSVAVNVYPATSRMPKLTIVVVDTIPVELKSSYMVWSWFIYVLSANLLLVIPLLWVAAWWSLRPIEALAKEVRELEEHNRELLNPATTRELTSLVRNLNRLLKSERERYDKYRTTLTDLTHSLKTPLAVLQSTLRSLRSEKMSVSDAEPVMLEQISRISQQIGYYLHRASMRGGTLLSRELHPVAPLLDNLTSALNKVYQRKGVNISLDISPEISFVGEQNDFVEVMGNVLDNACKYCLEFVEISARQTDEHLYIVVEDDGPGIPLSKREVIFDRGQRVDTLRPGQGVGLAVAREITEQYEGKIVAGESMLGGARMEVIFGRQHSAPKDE
How it was run: as §1

UniProt P27278 = conditions: peptide sequence: TVAILGGESSGK; direction: stabilized; replicate design: treated separately
UniProt P27278, sequence (P27278 whole entry): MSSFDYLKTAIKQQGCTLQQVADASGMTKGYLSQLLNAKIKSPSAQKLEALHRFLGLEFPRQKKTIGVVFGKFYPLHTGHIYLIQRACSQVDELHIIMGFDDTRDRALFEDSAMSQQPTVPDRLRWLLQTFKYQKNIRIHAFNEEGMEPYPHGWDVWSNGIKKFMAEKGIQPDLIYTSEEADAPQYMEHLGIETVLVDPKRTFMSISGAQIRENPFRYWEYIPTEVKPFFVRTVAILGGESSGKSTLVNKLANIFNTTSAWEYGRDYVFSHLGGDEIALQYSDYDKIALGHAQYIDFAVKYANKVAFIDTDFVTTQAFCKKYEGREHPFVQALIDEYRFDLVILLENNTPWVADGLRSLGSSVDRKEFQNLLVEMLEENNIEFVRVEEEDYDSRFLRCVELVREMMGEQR
How it was run: as §1

UniProt P37760 = conditions: peptide sequence: TGQVGWELQR; direction: stabilized; replicate design: treated separately
UniProt P37760, sequence (P37760 whole entry): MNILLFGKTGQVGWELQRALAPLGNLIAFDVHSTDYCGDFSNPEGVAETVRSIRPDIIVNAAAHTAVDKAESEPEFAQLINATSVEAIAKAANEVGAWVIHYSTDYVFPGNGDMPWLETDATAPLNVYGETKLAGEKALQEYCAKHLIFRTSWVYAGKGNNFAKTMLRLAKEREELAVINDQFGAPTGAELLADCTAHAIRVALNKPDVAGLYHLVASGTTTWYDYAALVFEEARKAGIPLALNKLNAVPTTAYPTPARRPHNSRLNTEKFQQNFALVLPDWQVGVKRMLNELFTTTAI
How it was run: as §1

UniProt P07862 = conditions: peptide sequence: AWTTLGCK; direction: stabilized; replicate design: treated separately
How it was run: as §1

UniProt P64610 = conditions: peptide sequence: YYAHLGR; direction: stabilized; replicate design: treated separately
UniProt P64610, sequence (P64610 whole entry): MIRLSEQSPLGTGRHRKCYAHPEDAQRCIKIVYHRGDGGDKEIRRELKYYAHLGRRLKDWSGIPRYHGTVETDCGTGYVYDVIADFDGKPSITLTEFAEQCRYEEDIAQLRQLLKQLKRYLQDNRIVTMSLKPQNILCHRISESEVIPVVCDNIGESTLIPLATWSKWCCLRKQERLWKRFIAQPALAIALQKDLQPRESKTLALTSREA
How it was run: as §1

UniProt P06612, sequence (P06612 whole entry): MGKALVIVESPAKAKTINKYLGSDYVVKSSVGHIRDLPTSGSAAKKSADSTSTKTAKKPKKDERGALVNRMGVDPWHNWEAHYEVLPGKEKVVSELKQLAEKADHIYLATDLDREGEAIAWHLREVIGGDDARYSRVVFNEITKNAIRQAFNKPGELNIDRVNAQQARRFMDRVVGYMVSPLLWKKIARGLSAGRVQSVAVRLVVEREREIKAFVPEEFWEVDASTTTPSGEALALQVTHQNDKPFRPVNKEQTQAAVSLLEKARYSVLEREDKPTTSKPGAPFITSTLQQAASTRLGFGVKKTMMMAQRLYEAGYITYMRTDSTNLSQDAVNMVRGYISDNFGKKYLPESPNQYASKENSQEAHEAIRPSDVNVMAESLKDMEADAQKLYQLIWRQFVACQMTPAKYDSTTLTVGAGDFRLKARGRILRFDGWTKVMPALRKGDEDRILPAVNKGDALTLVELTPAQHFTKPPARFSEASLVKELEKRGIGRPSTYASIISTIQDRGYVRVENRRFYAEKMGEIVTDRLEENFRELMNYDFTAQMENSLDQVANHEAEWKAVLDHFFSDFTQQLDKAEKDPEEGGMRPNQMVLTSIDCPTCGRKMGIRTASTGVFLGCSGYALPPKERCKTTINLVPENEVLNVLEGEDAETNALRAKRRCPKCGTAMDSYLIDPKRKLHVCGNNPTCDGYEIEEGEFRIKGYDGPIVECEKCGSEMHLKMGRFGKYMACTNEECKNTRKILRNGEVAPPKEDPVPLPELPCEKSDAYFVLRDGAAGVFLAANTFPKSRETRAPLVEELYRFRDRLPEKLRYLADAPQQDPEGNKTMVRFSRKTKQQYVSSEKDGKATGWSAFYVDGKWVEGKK

Nc1ncnc2c1ncn2[C@@H]1O[C@H](COP(=O)(O)OP(=O)(O)OP(=O)(O)O)[C@@H](O)[C@H]1O [adenosine 5'-triphosphate]
pEC50 of peptide local stability change (UniProt P06612): 2.16
pEC50 of peptide local stability change (UniProt P27828): 2.12
pEC50 of peptide local stability change (UniProt P17888): 3.81
pEC50 of peptide local stability change (UniProt P37908): 2.73
pEC50 of peptide local stability change (UniProt P00954): 2.73
pEC50 of peptide local stability change (UniProt P75821): 2.62
pEC50 of peptide local stability change (UniProt P23837): 3.21
pEC50 of peptide local stability change (UniProt P27278): 3.44
pEC50 of peptide local stability change (UniProt P37760): 3.12
pEC50 of peptide local stability change (UniProt P07862): 3.66
pEC50 of peptide local stability change (UniProt P64610): 4.1
